The record followed here is patent publication US20050234046A1 (Kalypsys, Inc., priority 2004, published 2005).

Test in all cases: Transient transfection (transactivation) assay in CV-1 cells, GAL4-PPAR chimera, luciferase reporter
Format in all cases: cell-based

For one experiment, the target named is T1, PPAR alpha (Homo sapiens, UniProt Q07869).
T1 construct: expressed in transfected cells; host or cells: CV-1 cells
T1 sequence (Q07869 239-466 limits assumed): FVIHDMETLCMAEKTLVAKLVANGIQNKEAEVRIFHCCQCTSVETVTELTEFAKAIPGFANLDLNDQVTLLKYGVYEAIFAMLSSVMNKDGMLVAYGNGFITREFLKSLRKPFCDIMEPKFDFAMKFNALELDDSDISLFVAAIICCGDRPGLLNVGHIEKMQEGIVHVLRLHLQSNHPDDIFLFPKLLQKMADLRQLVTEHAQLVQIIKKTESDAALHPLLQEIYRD
The source says:
Compounds may be screened for functional potency in transient transfection assays in CV-1 cells or other cell types for their ability to activate the PPAR subtypes (transactivation assay). A previously established chimeric receptor system was utilized to allow comparison of the relative transcriptional activity of the receptor subtypes on the same synthetic response element and to prevent endogenous receptor activation from complicating the interpretation of results. See, for example; Lehmann, J. M.; Moore, L. B.; Smith-Oliver, T. A; Wilkinson, W. O.; Willson, T. M.; Kliewer, S. A., An antidiabetic thiazolidinedione is a high affinity ligand for peroxisome proliferatur-activated receptor γ (PPARγ), J. Biol. Chem., 1995, 270, 12953-6. The ligand binding domains for murine and human PPAR-alpha, PPAR-gamma, and PPAR-delta are each fused to the yeast transcription factor GAL4 DNA binding domain. CV-1 cells were transiently transfected with expression vectors for the respective PPAR chimera along with a reporter construct containing four or five copies of the GAL4 DNA binding site driving expression of luciferase. After 8-16 h, the cells are replated into multi-well assay plates and the media is exchanged to phenol-red free DME medium supplemented with 5% delipidated calf serum. 4 hours after replating, cells were treated with either compounds or 1% DMSO for 20-24 hours. Luciferase activity was then assayed with Britelite (Perkin Elmer) following the manufacturer's protocol and measured with either the Perkin Elmer Viewlux or Molecular Devices Acquest Xsee, for example, Kliewer, S. A., et. al. Cell 1995, 83, 813-819). Rosiglitazone is used as a positive control in the hPPAR-γ assay. Wy-14643 and GW7647 is used as a positive control in the hPPAR-α assay. GW501516 is used as the positive control in the hPPAR-δ assay.
Compounds of Examples 1-233 were assayed to measure their biological activity with respect to their EC50 values and efficacy for modulating PPAR-alpha, PPAR-gamma, and PPAR-delta as set forth in Table 3.

The target in another experiment is T2, PPAR gamma (Homo sapiens, UniProt P37231).
T2 construct: expressed in transfected cells; host or cells: CV-1 cells
T2 sequence (P37231 238-503 limits assumed): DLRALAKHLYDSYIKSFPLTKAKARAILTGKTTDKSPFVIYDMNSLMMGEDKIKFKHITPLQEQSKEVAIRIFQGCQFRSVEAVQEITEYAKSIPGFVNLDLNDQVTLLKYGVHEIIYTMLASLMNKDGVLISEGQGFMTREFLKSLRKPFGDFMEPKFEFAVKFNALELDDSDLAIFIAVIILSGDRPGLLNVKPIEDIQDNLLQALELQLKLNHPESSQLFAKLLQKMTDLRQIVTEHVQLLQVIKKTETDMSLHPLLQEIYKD

For the next experiment, the target named is T3, PPAR delta (Homo sapiens, UniProt Q03181).
T3 construct: expressed in transfected cells; host or cells: CV-1 cells
T3 sequence (Q03181 211-439 limits assumed): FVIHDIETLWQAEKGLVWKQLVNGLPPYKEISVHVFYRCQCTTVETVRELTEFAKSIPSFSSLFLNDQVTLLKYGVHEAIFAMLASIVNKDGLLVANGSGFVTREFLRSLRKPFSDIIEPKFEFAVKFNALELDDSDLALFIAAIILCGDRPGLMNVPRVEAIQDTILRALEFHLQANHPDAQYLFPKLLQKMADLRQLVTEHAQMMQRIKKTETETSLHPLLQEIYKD

The term EC50 denotes the midpoint of the concentration-response curve. Higher therefore signals a need for much substance.

In the case of `COC(=O)[C@@H]1CN(S(=O)(=O)c2ccc(C)c(CC(=O)O)c2)CCN1c1ccc(C(F)(F)F)cn1` [Example 42, (S)-4-(3-Carboxymethyl-4-methyl-benzenesulfonyl)-1-(5-trifluoromethyl-pyridin-2-yl)-piperazine-2-carboxylic acid methyl ester], the EC50 at PPAR alpha was above 100 µM; at PPAR gamma, 5 to 100 µM; on PPAR delta, below 5 µM.
As to `Cc1ccc(S(=O)(=O)N2CCC(c3nccs3)CC2)cc1CC(=O)O` [Example 43, [2-Methyl-5-(4-thiazol-2-yl-piperidine-1-sulfonyl)-phenyl]-acetic acid], the EC50 on PPAR alpha, at PPAR gamma and on PPAR delta was above 100 µM in each case.
With `Cc1ccc(S(=O)(=O)N2CCN(c3ncc(I)cn3)CC2)cc1CC(=O)O` [Example 44, {5-[4-(5-Iodo-pyrimidin-2-yl)-piperazine-1-sulfonyl]-2-methyl-phenyl}-acetic acid], the EC50 at PPAR alpha, on PPAR gamma and on PPAR delta was below 5 µM each time.
Regarding `Cc1ccc(S(=O)(=O)N2CC=C(c3ccc(C(F)(F)F)cc3)CC2)cc1CC(=O)O` [Example 45, {2-Methyl-5-[4-(4-trifluoromethyl-phenyl)-3,6-dihydro-2H-pyridine-1-sulfonyl]-phenyl}-acetic acid], the results for the EC50 on PPAR alpha, at PPAR gamma and at PPAR delta were 5 to 100 µM, 5 to 100 µM and below 5 µM, respectively.
`Cc1ccc(S(=O)(=O)N2CCC(c3nc(C(F)(F)F)cs3)CC2)cc1CC(=O)O` [Example 46, {2-Methyl-5-[4-(4-trifluoromethyl-thiazol-2-yl)-piperidine-1-sulfonyl]-phenyl}-acetic acid]: the EC50 on PPAR alpha was above 100 µM; on PPAR gamma, 5 to 100 µM; at PPAR delta, above 100 µM.
On to `Cc1ccc(S(=O)(=O)N2CCN(c3ncccn3)CC2)cc1CC(=O)O` [Example 47], for which the EC50 at PPAR alpha was above 100 µM; at PPAR gamma, 5 to 100 µM; on PPAR delta, 5 to 100 µM.
Take `Cc1ccc(S(=O)(=O)N2CCC(c3ccc(C(F)(F)F)cc3)CC2)cc1CC(=O)O` [Example 48, {2-Methyl-5-[4-(4-trifluoromethyl-phenyl)-piperidine-1-sulfonyl]-phenyl}-acetic acid]: the EC50 on PPAR alpha is above 100 µM; on PPAR gamma, 5 to 100 µM. The “PPAR delta EC50” value at PPAR delta is on record as “B/C”.
For `Cc1ccc(S(=O)(=O)N2CCC(c3ccc(Cl)c(Cl)c3)CC2)cc1CC(=O)O` [Example 49, {5-[4-(3,4-Dichloro-phenyl)-piperidine-1-sulfonyl]-2-methyl-phenyl)-acetic acid], the 50% effective concentration (EC50) on PPAR alpha was above 100 µM; at PPAR gamma, 5 to 100 µM; at PPAR delta, 5 to 100 µM.
For `Cc1ccc(S(=O)(=O)N2CCN(c3nc(Cl)cs3)CC2)cc1CC(=O)O` [Example 50, {5-[4-(4-Chloro-thiazol-2-yl)-piperazine-1-sulfonyl]-2-methyl-phenyl}-acetic acid], the figures for the EC50 on PPAR alpha, at PPAR gamma and at PPAR delta were above 100 µM, 5 to 100 µM and 5 to 100 µM, respectively.
Regarding `Cc1ccc(S(=O)(=O)N2CCN(c3nc(Cl)c(Cl)s3)CC2)cc1CC(=O)O` [Example 51, {5-[4-(4,5-Dichloro-thiazol-2-yl)-piperazine-1-sulfonyl]-2-methyl-phenyl}-acetic acid], the EC50 is 5 to 100 µM on PPAR alpha, below 5 µM on PPAR gamma and below 5 µM at PPAR delta.
As for `Cc1ccc(S(=O)(=O)N2CCN(c3nc(C(F)(F)F)cs3)CC2)cc1CC(=O)O` [Example 53, {2-Methyl-5-[4-(4-trifluoromethyl-thiazol-2-yl)-piperazine-1-sulfonyl]-phenyl}-acetic acid], the figures for the concentration giving a half-maximal response (EC50) at PPAR alpha, at PPAR gamma and on PPAR delta were above 100 µM, 5 to 100 µM and 5 to 100 µM, respectively.
With `Cc1ccc(S(=O)(=O)N2CCN(c3ncc(C(F)(F)F)cc3Cl)CC2)cc1CC(=O)O` [Example 54, {5-[4-(3-Chloro-5-trifluoromethyl-pyridin-2-yl)-piperazine-1-sulfonyl]-2-methyl-phenyl}-acetic acid], the EC50 on PPAR alpha, on PPAR gamma and at PPAR delta was below 5 µM throughout.
For the compound `Cc1ccc(S(=O)(=O)N2CCN(c3ncc(Br)s3)CC2)cc1CC(=O)O` [Example 55, {5-[4-(5-Bromo-thiazol-2-yl)-piperazine-1-sulfonyl]-2-methyl-phenyl}-acetic acid], the values for the EC50 on PPAR alpha, at PPAR gamma and on PPAR delta were 5 to 100 µM, 5 to 100 µM and below 5 µM, respectively.
For the compound `Cc1ccc(S(=O)(=O)N2CCN(c3ccc([N+](=O)[O-])cn3)CC2)cc1CC(=O)O` [Example 56, {2-Methyl-5-[4-(5-nitro-pyridin-2-yl)-piperazine-1-sulfonyl]-phenyl}-acetic acid], the EC50 at PPAR alpha was above 100 µM; on PPAR gamma it was 5 to 100 µM; on PPAR delta, below 5 µM.
Turning to `Cc1ccc(S(=O)(=O)N2CCN(c3ncc(Cl)cn3)CC2)cc1CC(=O)O` [Example 57, {5-[4-(5-Chloro-pyrimidin-2-yl)-piperazine-1-sulfonyl]-2-methyl-phenyl}-acetic acid], the results for the concentration giving a half-maximal response (EC50) at PPAR alpha, on PPAR gamma and on PPAR delta were 5 to 100 µM, below 5 µM and below 5 µM, respectively.
As for `Cc1ccc(S(=O)(=O)N2CCN(c3ncc(Br)cn3)CC2)cc1CC(=O)O` [Example 58, {5-[4-(5-Bromo-pyrimidin-2-yl)-piperazine-1-sulfonyl]-2-methyl-phenyl}-acetic acid], the EC50 is 5 to 100 µM on PPAR alpha, below 5 µM at PPAR gamma and below 5 µM on PPAR delta.
As to `Cc1ccc(S(=O)(=O)N2CCN(c3ncc(C(F)(F)F)cn3)CC2)cc1CC(=O)O` [Example 59, {2-Methyl-5-[4-(5-trifluoromethyl-pyrimidin-2-yl)-piperazine-1-sulfonyl]-phenyl}-acetic acid], the EC50 at PPAR alpha, at PPAR gamma and on PPAR delta was below 5 µM each time.
With `Cc1ccc(S(=O)(=O)N2CCN(c3ccc(Br)cn3)CC2)cc1CC(=O)O` [Example 61, {5-[4-(5-Bromo-pyridin-2-yl)-piperazine-1-sulfonyl]-2-methyl-phenyl}-acetic acid], the EC50 is above 100 µM at PPAR alpha, below 5 µM on PPAR gamma and below 5 µM on PPAR delta.
With `Cc1ccc(S(=O)(=O)N2CCN(c3ccc(Cl)cn3)CC2)cc1CC(=O)O` [Example 62, {5-[4-(5-Chloro-pyridin-2-yl)-piperazine-1-sulfonyl]-2-methyl-phenyl}-acetic acid], the EC50 was above 100 µM on PPAR alpha and below 5 µM on PPAR delta. Moreover, on PPAR gamma, the “PPAR gamma EC50” value was “B/C”.
For `Cc1ccc(S(=O)(=O)N2CCN(c3ncc(F)cn3)CC2)cc1CC(=O)O` [Example 63, {5-[4-(5-Fluoro-pyrimidin-2-yl)-piperazine-1-sulfonyl]-2-methyl-phenyl}-acetic acid], the EC50 at PPAR alpha is above 100 µM; at PPAR gamma it was 5 to 100 µM; at PPAR delta, below 5 µM.
For `Cc1ccc(S(=O)(=O)N2CCN(c3nc(Cl)ncc3F)CC2)cc1CC(=O)O` [Example 64, {5-[4-(2-Chloro-5-fluoro-pyrimidin-4-yl)-piperazine-1-sulfonyl]-2-methyl-phenyl}-acetic acid], in that order: above 100 µM, 5 to 100 µM and above 100 µM.
Consider `Cc1ccc(S(=O)(=O)N2CC=C(c3ccc(C(F)(F)F)cn3)CC2)cc1CC(=O)O` [Example 66, [2-Methyl-5-(5-trifluoromethyl-3′,6′-dihydro-2^1H-[2,4′]bipyridinyl-1′-sulfonyl)-phenyl]-acetic acid], for which the EC50 is 5 to 100 µM at PPAR alpha, above 100 µM on PPAR gamma and below 5 µM on PPAR delta.
